Numbers after ± are expanded uncertainties. One block for each compound: values may come before it.
Tests used:
[1] = 332.7 K; 101 kPa; Liquid
[2] = xn = mol fraction of the nth substance listed; conditions: 332.7 K, 101 kPa, Liquid

- mass density [1]: 778.14 ± 0.37 kg/m3
Structure (SMILES): CC(C)CCO [3-methylbutan-1-ol]

- mass density ([2]; x2 = 0): 778.14 ± 0.37 kg/m3
- mass density ([2]; x2 = 0.0501): 780.94 ± 0.36 kg/m3
- mass density ([2]; x2 = 0.1087): 784.25 ± 0.36 kg/m3
- mass density ([2]; x2 = 0.1714): 788.1 ± 0.36 kg/m3
- mass density ([2]; x2 = 0.2296): 791.81 ± 0.35 kg/m3
- mass density ([2]; x2 = 0.29): 795.6 ± 0.35 kg/m3
- mass density ([2]; x2 = 0.3561): 799.89 ± 0.34 kg/m3
- mass density ([2]; x2 = 0.4088): 803.56 ± 0.34 kg/m3
- mass density ([2]; x2 = 0.4659): 807.59 ± 0.34 kg/m3
- mass density ([2]; x2 = 0.5339): 812.5 ± 0.33 kg/m3
- mass density ([2]; x2 = 0.5891): 816.6 ± 0.33 kg/m3
- mass density ([2]; x2 = 0.6597): 821.96 ± 0.32 kg/m3
- mass density ([2]; x2 = 0.7088): 825.91 ± 0.31 kg/m3
- mass density ([2]; x2 = 0.7693): 830.72 ± 0.31 kg/m3
- mass density ([2]; x2 = 0.8286): 835.79 ± 0.3 kg/m3
- mass density ([2]; x2 = 0.8882): 840.96 ± 0.3 kg/m3
- mass density ([2]; x2 = 0.9488): 846.43 ± 0.29 kg/m3
Structure (SMILES): CC(C)CCO [3-methylbutan-1-ol] + CCOC(C)=O

- mass density [1]: 851.36 ± 0.28 kg/m3
Structure (SMILES): CCOC(C)=O [ethyl acetate]

- mass density ([2]; x1 = 1): 851.36 ± 0.28 kg/m3
Structure (SMILES): CCOC(C)=O [ethyl acetate] + CC(C)CCO

— the NIST ThermoML archive (doi:10.1016/j.fluid.2008.03.002)
